Assay results taken from patent publication US20020042403A1, “Use of vitamin D analogs to treat conditions related to increased oxidative stress” (priority 1998, published 2002).

What was measured:
[1] = system: keratinocytes; assay: cis-parinaric acid (PnA) assay of AMVN-induced phospholipid oxidation in live keratinocytes; assay type: cell-based, human
Procedure: Comparison of the Antioxidant Potency of ST-630 with that of Calcitriol and Alpha-Tocopherol in Live Keratinocytes Using the Cis-parinaric Acid (PnA) assay […].
Keratinocytes were incubated in the presence of a complex of PnA with human serum albumin (PnA-HSA) for up to […] to incorporate PnA into cellular phospholipids. […] The incorporation of PnA in the various phospholipids was differential and the amount of PnA incorporated was in the following order: PC>PEA>PI>PS>SPH>DPG. The constituent phospholipids were separated from the total lipid extract by HPLC. Major fluorescence peaks were identified using authentic phospholipids standards including DPG, PI, PEA, PS, PC and SPH.
To determine the effects of ST-630 on keratinocytes subjected to oxidative stress cell suspensions labeled with PnA were incubated with or without ST-630 (5-500 nM) in the dark at 37° C. for 1 hr in the presence of […] AMVN. Based on the known rate constant of AMVN decomposition under the experimental conditions employed (Niki, 1990), at 0.5 mM it can be estimated that 2.4 nanomoles (nmoles) of peroxyl radicals are generated per hour at 37° C. in each incubation containing 10^6 cells. Incubation of keratinocytes with AMVN for 1 hr induced significant oxidation of all the detected phospholipids.

[2] = system: human keratinocyte cells; assay: AMVN-induced hypodiploidy (apoptosis) in keratinocytes, flow cytometric analysis; assay type: cell-based
Description: Nucleus/DNA of cells treated with chemical or physical agents undergo changes primarily by the activation of the nucleases, before they lose the membrane integrity. Such changes are due to the loss of DNA or fragmentation of the nucleus into apoptotic bodies. Flow cytomeric analysis of a population of cells can reveal the appearance of a hypodiploid population and changes in the stages of the cell cycle.
AMVN induces changes in the cell cycle pattern and it can be modified either by calcitriol or ST-630. […] AMVN-derived peroxyl radicals primarily cause damage to the DNA and repair of DNA is accomplished during the G1 or G2 block. When keratinocytes were treated with various concentrations of ST-630 or calcitriol, and subsequently exposed to AMVN there was a considerable reduction in the level of hypodiploid cells. This effect was concentration-dependent. […] The highest concentration of calcitriol used, i.e. 500 nM reduced the hypodiploidy by 60%. […] 10 nM of ST-630 blocked the hypodiploidy by 60%.

[3] = system: human neutrophils (PMNLs); assay: oxidative burst (superoxide production, cytochrome c reduction) in human neutrophils; assay type: cell-based
Description: This example provides studies of oxidative burst and chemotaxis in human neutrophils. Oxidative (respiratory) burst in polymorphonuclear nuetrophils (PMN) is a major mechanism of defense against bacterial and/or viral pathogens. Oxidative burst is a complex process resulting in the generation by PMN of a huge amount of oxygen free radicals (superoxide and hydroxyl radicals) and chemically reactive substances—hydrogen peroxide and hypochlorite. The mechanism of cell activation involves such steps as increase of intracellular Ca^2+ concentration upon the interaction of activator, increasing the activity of protein kinase C, activation of NADPH oxidase with subsequent generation of superoxide radicals and hydrogen peroxide in the phagosomes and in the surrounding area, releasing and activation of myeloperoxidase and production of hypochlorite (HOCL).
The respiratory burst in PMNLs (isolated from fresh heparinized whole blood by dextran sedimentation) was initiated by the addition of N-formylmethionyl-leucyl-phenylalanine-methylester, FLPM (10^−7M), phorbol12,13-miristate, acetate, PMA (0.01 μg/ml) and opsonized zimozan (1.0 mg/ml). Superoxide production was assayed by the superoxide dismutase-22 inhibitable reduction of cytochrome c. […]

[4] = system: human neutrophils; assay: chemotaxis in human neutrophils, multiwell chamber with FLPM; assay type: cell-based; details: higher concentrations of FLPM as chemotactic factor
Description: For chemotaxis assay, chemotactic solution (medium 199 containing 0.5% BSA and FLPM) and multiwell chamber were used. The numbers of migrated neutrophils for different concentrations of FLPM (as a chemotactic factor) were within the usually observable range (see Table 4 in the Appendix). […] Despite this, the data are consistent with the effects of these compounds on superoxide release. Both ST-630 and calcitriol appear to be inhibitory when higher concentrations of FLPM were used.

[5] = system: Propionibacterium acnes; assay: antibacterial disc inhibition zone test; assay type: cell-based; details: 6 mm filter paper discs, 48 hr at 36° C.
Procedure: Propionibacterium acnes, the target of inflammation in acne, was tested for its sensitivity to ST-630 and calcitriol using the inhibition method standardly employed for assessment of antibiotic efficiency. The strain (lyophilized) P. acnes (batch # 96-09SV) was received from the US type culture collection (Rockville, Md.). It was revitalized in 0.5 ml freshly boiled (10 min) reinforced Clostridial medium. ST-630 or calcitriol dissolved in 5.0 μl DMSO were applied onto the top of sterilized discs made of filter paper (6 mm). Erythromycin (15 μg) and DMSO (5.0 μl) were used as controls (positive and negative, respectively). The plates were incubated for 48 hr at 36° C. and the diameter of the inhibition zone was measured. […] The antibacterial activity of ST-630 at concentration 12.8 μg was about 2.7-fold lower than that of 15 μg of erythromycin. We conclude that ST-630 (but not calcitriol) exerts a significant inhibitory antibacterial activity towards P. acnes.

[6] = system: cultured human keratinocytes; assay: 3H-thymidine incorporation into keratinocyte DNA (proliferation); assay type: cell-based; details: 42 h and 66 h after initial dosing with 10^-8 M
Procedure: Two experimental approaches were performed to assess the effect of ST-630 on the proliferation of cultured human keratinocytes. The first one was the ^3H-thymidine incorporation experiments that involved the use of a radiolabeled nucleotide which is specifically found in newly synthesized DNA molecules only. The second approach used in this study was the basal cell count. Although it is tedious, the second method is a more definitive way to determine cellular proliferation. Our results clearly establish the potency and the long-lasting effects of ST-630 in inhibiting cellular proliferation as determined by ^3H-thymidine and basal cell count.

[7] = system: cultured keratinocytes; details: cited from earlier work

| Structure (SMILES) | concentration giving maximum antioxidant effectiveness/protection against AMVN-induced oxidation ([1]; PnA-labeled keratinocytes, 0.5 mM AMVN, 1 hr, 37° C.) [nM] | concentration-dependency of the protective effect ([1]; PnA-labeled keratinocytes, AMVN) | reduction of AMVN-induced hypodiploidy ([2]; 10 nM) [%] | effect on cell cycle ([2]; 10 nM, then AMVN) | reduction of AMVN-induced hypodiploidy ([2]; 500 nM) [%] | superoxide release with known stimulants (FLPM, PMA, opsonized zymosan) [3] | effect on chemotaxis [4] | antibacterial activity (inhibition zone) [5] | inhibitory (antiproliferative) activity with time [6] | metabolism in cultured keratinocytes [7] | antioxidant action compared with the other compounds ([1]; concentrations 250 and 500 nm) |
| --- | --- | --- | --- | --- | --- | --- | --- | --- | --- | --- | --- |
| C=C1/C(=C\C=C2/CCC[C@]3(C)[C@@H]([C@H](C)CCCC(C)(C)O)CC[C@@H]23)C[C@@H](O)C[C@@H]1O [calcitriol, reference compound] | 25 to 50 | two-phase protection pattern | 40 | blocked the cells at the G2/M phase | 60 | act to prime for supertoxide release | inhibitory | Neither DMSO nor calcitriol exerted any antibacterial activity | diminished with time | rapidly metabolized | – |
| Cc1c(C)c2c(c(C)c1O)CC[C@@](C)(CCC[C@H](C)CCC[C@H](C)CCCC(C)C)O2 [vitamin E, Alpha-Tocopherol, reference compound] | – | – | – | – | – | – | – | – | – | – | comparable to that of ST-630 |
